One may read the solubility as the dissolved amount per volume that the medium holds.

Structures can show the parent of a compound that is named as a salt. Where two headings read alike, the source gives them in different places.

Assay type in all cases: physicochemical
Data set [1] in a line: solubility in SGF, FeSSIF, FaSSIF and water.
The nature of data set [2]: dynamic vapor sorption (DVS) analysis. As for the experimental part: Dynamic vapor sorption analysis (DVS) was performed on a DVS Intrinsic PLUS (SMS, UK). The sample was placed into a tared sample chamber and automatically weighed. The sample was dried at 40° C. until the dm/dt was less than 0.002% and cooled to 25° C. The instrument parameters were as follows: step time (min)=60 min; sample temperature=25 C; cycle=full cycle; adsorption (% RH)=0, 10, 20, 30, 40, 50, 60, 70, 80, 90; desorption (% RH)=80, 70, 60, 50, 40, 30, 20, 10, 0; saved data rate=5 sec; total flow rate=200 sccm; post experimental flow rate=200 sccm.

Data set [3] is described as follows: solid form chemical and physical stability.
[4] abbreviates: about 0% to about 80% RH at 25° C.
Where [5] appears, read: about 0% to about 90% RH at 25° C.

As for `[2H]C([2H])([2H])CC(=O)c1cnc(NC(=O)C2CC2)cc1Nc1cccc(-c2ncn(C([2H])([2H])[2H])n2)c1OC` [Form 1-1, N-(4-((2-methoxy-3-(1-(methyl-d3)-1H-1,2,4-triazol-3-yl)phenyl)amino)-5-(propanoyl-3,3,3-d3)pyridin-2-yl) cyclopropanecarboxamide, methanesulfonic acid salt], in data set [1] (FaSSIF, FeSSIF and water), the “salt dissociation in solubility media” value is “dissociate to the free base”. In addition, the solubility in data set [1] (FaSSIF, read-out: solubility in FaSSIF) was 1 to 2 µg/mL; in data set [1] (FeSSIF, read-out: solubility in FeSSIF), 20 to 30 µg/mL; in data set [1] (SGF, simulated gastric fluid, read-out: solubility in SGF), more than 4100 µg/mL. Also, in data set [2], the hygroscopicity entry was “only slightly hygroscopic”. In addition, the “DVS reversable total mass change” value in data set [2] (setting [4]) is “about 0.6 wt. %”; in data set [2] (setting [5]), “about 1.3 wt. %”. For the same molecule, the “form change after DVS analysis” value in data set [2] is listed as “No form change”. Moreover, the “time chemically and physically stable in the solid form” value in data set [3] (40° C./75% RH) and in data set [3] (60° C.) was “at least 10 days” each time.
For `[2H]C([2H])([2H])CC(=O)c1cnc(NC(=O)C2CC2)cc1Nc1cccc(-c2ncn(C([2H])([2H])[2H])n2)c1OC` [Form 5-2, N-(4-((2-methoxy-3-(1-(methyl-d3)-1H-1,2,4-triazol-3-yl)phenyl)amino)-5-(propanoyl-3,3,3-d3)pyridin-2-yl) cyclopropanecarboxamide, sulfuric acid salt], the “DVS reversable total mass change” value was “about 0.9 wt. %” in data set [2] (setting [4]) and “about 1.4 wt. %” in data set [2] (setting [5]). The “form change after DVS analysis” value in data set [2] was “No form change”.
Turning to `[2H]C([2H])([2H])CC(=O)c1cnc(NC(=O)C2CC2)cc1Nc1cccc(-c2ncn(C([2H])([2H])[2H])n2)c1OC` [Form 6, N-(4-((2-methoxy-3-(1-(methyl-d3)-1H-1,2,4-triazol-3-yl)phenyl)amino)-5-(propanoyl-3,3,3-d3)pyridin-2-yl) cyclopropanecarboxamide, p-toluenesulfonic acid salt], the “DVS reversable total mass change” value in data set [2] (setting [4]) was “about 0.6 wt. %”; in data set [2] (setting [5]), “about 0.7 wt. %”. Also, the “form change after DVS analysis” value in data set [2] is “No form change”.

The values above are taken from patent US20250376459A1, “CRYSTALLINE FORMS OF A TYK2 INHIBITOR AND USES THEREOF” (Alumis Inc., priority 2022, published 2025).
